Converted amounts (≈) assume the structure as drawn.
What was measured:
[1] = tested on: L. pneumophila serogroup 1; assay: microbe, parasite or virus in culture; assay type: cell-based, Legionella pneumophila; conditions: for MIC 90%: L. pneumophila serogroup 1 (n = 85)
[2] = tested on: L. pneumophila serogroup 2; assay: microbe, parasite or virus in culture; assay type: cell-based; conditions: Legionella pneumophila
[3] = tested on: L. pneumophila serogroup 3; assay: microbe, parasite or virus in culture; assay type: cell-based; conditions: Legionella pneumophila
[4] = tested on: L. pneumophila serogroup 4; assay: microbe, parasite or virus in culture; assay type: cell-based; conditions: Legionella pneumophila
[5] = tested on: L. pneumophila serogroup 5; assay: microbe, parasite or virus in culture; assay type: cell-based; conditions: Legionella pneumophila
[6] = tested on: L. pneumophila serogroup 6; assay: microbe, parasite or virus in culture; assay type: cell-based; conditions: Legionella pneumophila
[7] = tested on: L. pneumophila serogroup 7; assay: microbe, parasite or virus in culture; assay type: cell-based; conditions: Legionella pneumophila
[8] = tested on: L. pneumophila serogroup 8, 9; assay: microbe, parasite or virus in culture; assay type: cell-based; conditions: Legionella pneumophila
[9] = tested on: L. dumoffii; assay: organism not typed; assay type: cell-based
[10] = tested on: L. micadadei; assay: organism not typed; assay type: cell-based, L. micdadei
[11] = tested on: L. longbeacheae; assay: organism not typed; assay type: cell-based
[12] = tested on: Other Legionella spp.; assay: microbe, parasite or virus in culture; assay type: cell-based
[13] = tested on: Erythromycin-susceptible L. pneumophila; assay type: cell-based, Legionella pneumophila
[14] = tested on: Erythromycin-susceptible Legionella spp. other than L. pneumophila; assay type: cell-based
[15] = tested on: isolates of Legionella pneumophila and other Legionella spp.; assay: microbe, parasite or virus in culture; assay type: cell-based
[16] = tested on: L. pneumophila serogroups 1-9; assay type: cell-based, Legionella pneumophila
[17] = tested on: L. dumoffii and L. longbeachae; assay: organism not typed; assay type: cell-based

## CO/N=C1\CN(c2nc3c(cc2F)c(=O)c(C(=O)O)cn3C2CC2)CC1CN (racemic) [Gemifloxacin, (R,S)-7-(3-aminomethyl-4-methoxyiminopyrrolidin-1-yl)-1-cyclopropyl-6-fluoro-4-oxo-1,4-dihydro-1,8-naphthyridine-3-carboxylic acid]
[1]
  MIC 90%: ≦0.004 mg/L
[1]; listed as gemifloxacin
  MIC 90%: 0.016 µg/mL (≈ 0.0411 µM)
[1]; Legionella pneumophila
  MIC50: 0.016 µg/mL (≈ 0.0411 µM)
[1]; Legionella pneumophila, 48 h, read-out: MIC Range
  MIC: 0.008 to 0.06 µg/mL (≈ 0.0205 to 0.154 µM)
[2]
  MIC50: 0.008 µg/mL (≈ 0.0205 µM)
  MIC90: 0.016 µg/mL (≈ 0.0411 µM)
[2]; 48 h, read-out: MIC Range
  MIC: 0.008 to 0.016 µg/mL (≈ 0.0205 to 0.0411 µM)
[3]
  MIC50: 0.016 µg/mL (≈ 0.0411 µM)
  MIC90: 0.016 µg/mL (≈ 0.0411 µM)
[3]; 48 h, read-out: MIC Range
  MIC: 0.008 to 0.016 µg/mL (≈ 0.0205 to 0.0411 µM)
[4]
  MIC50: 0.016 µg/mL (≈ 0.0411 µM)
  MIC90: 0.03 µg/mL (≈ 0.077 µM)
[4]; 48 h, read-out: MIC Range
  MIC: 0.008 to 0.03 µg/mL (≈ 0.0205 to 0.077 µM)
[5]
  MIC50: 0.03 µg/mL (≈ 0.077 µM)
  MIC90: 0.03 µg/mL (≈ 0.077 µM)
[5]; 48 h, read-out: MIC Range
  MIC: 0.03 to 0.06 µg/mL (≈ 0.077 to 0.154 µM)
[6]
  MIC50: 0.016 µg/mL (≈ 0.0411 µM)
  MIC90: 0.03 µg/mL (≈ 0.077 µM)
[6]; 48 h, read-out: MIC Range
  MIC: 0.008 to 0.03 µg/mL (≈ 0.0205 to 0.077 µM)
[7]
  MIC50: 0.008 µg/mL (≈ 0.0205 µM)
  MIC90: 0.016 µg/mL (≈ 0.0411 µM)
[7]; 48 h, read-out: MIC Range
  MIC: 0.008 to 0.016 µg/mL (≈ 0.0205 to 0.0411 µM)
[8]
  MIC50: 0.016 µg/mL (≈ 0.0411 µM)
  MIC90: 0.016 µg/mL (≈ 0.0411 µM)
[8]; 48 h, read-out: MIC Range
  MIC: 0.016 µg/mL (≈ 0.0411 µM)
[9]
  MIC50: 0.06 µg/mL (≈ 0.154 µM)
  MIC90: 0.06 µg/mL (≈ 0.154 µM)
[9]; 48 h, read-out: MIC Range
  MIC: 0.06 µg/mL (≈ 0.154 µM)
[10]
  MIC50: 0.016 µg/mL (≈ 0.0411 µM)
  MIC90: 0.03 µg/mL (≈ 0.077 µM)
  MICs fold more active than erythromycin: 5 fold
[10]; 48 h, read-out: MIC Range
  MIC: 0.008 to 0.03 µg/mL (≈ 0.0205 to 0.077 µM)
[11]
  MIC50: 0.06 µg/mL (≈ 0.154 µM)
  MIC90: 0.06 µg/mL (≈ 0.154 µM)
[11]; 48 h, read-out: MIC Range
  MIC: 0.016 to 0.06 µg/mL (≈ 0.0411 to 0.154 µM)
[12]
  MIC50: 0.03 µg/mL (≈ 0.077 µM)
  MIC90: 0.06 µg/mL (≈ 0.154 µM)
[12]; 48 h, read-out: MIC Range
  MIC: 0.016 to 0.06 µg/mL (≈ 0.0411 to 0.154 µM)
[13]; Erythromycin-susceptible L. pneumophila (n = 15), 4 × MIC, mean ± SD
  Mean PAE: 3.49 ± 3 h
[13]; erythromycin-susceptible L. pneumophila
  mean PAE longer than that of trovafloxacin, levofloxacin and clarithromycin: ≥ 1 h
[14]; Erythromycin-susceptible Legionella spp. (n = 13), 4 × MIC, mean ± SD
  Mean PAE: 2.27 ± 2 h
[14]; erythromycin-susceptible Legionella spp. other than L. pneumophila, four times the MIC
  PAE (mean PAE): 2.27 h
[14]; erythromycin-susceptible Legionella spp. other than pneumophila
  mean PAE longer than that of trovafloxacin, moxifloxacin and clarithromycin: ≥ 1 h
[15]
  MIC90: 0.016 µg/mL (≈ 0.0411 µM)
[16]; L. pneumophila serogroups 1-9, text
  MIC range: 0.008 to 0.06 µg/mL
[16]; against L. pneumophila strains tested
  fold more active than erythromycin: 5-6 fold
[17]
  MIC90: 0.06 µg/mL (≈ 0.154 µM)

Source: US6340689B1 (priority 1999, dated 2002)
